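Test compounds were applied to cells in 96-well plates for 48 hours at 5 doses. The concentration for 50% growth inhibition is given as GI50. TGI denotes the concentration required for complete inhibition of growth.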

Holding throughout (assay): NCI tumour cell line growth inhibition, 48 h
Experiment [1] has as its system MALME-3M melanoma.
For experiment [2], the system named is SR leukemia.
Experiment [3] has as its system BT-549 breast.
Experiment [4] concerns A549 NSCLC.

Regarding `CC1=CC[C@H](C[C@H](C#CCCCC2OCCO2)O[Si](C(C)C)(C(C)C)C(C)C)C(=O)CC1`, the TGI in experiment [1], in experiment [2], in experiment [3] and in experiment [4] was > 100 µM in each case.
As to `CCCN(CCc1ccc(-c2ccccc2)cc1)CCc1ccc2n[nH]nc2c1`, the TGI in experiment [1] is 22.8 µM; in experiment [2] it was 17.9 µM; in experiment [3] it was 22.2 µM; in experiment [4], 30 µM.
In the same order, the values of `Cn1c(-c2cccs2)cc(-c2cccs2)c1-c1cccs1` are > 100 µM, > 100 µM, > 100 µM and > 100 µM.
Take `Nc1cc(Cl)cc2cc(Cl)cnc12`: the TGI in experiment [1], in experiment [2], in experiment [3] and in experiment [4] was > 100 µM in each case.
`O=C(/C=C/c1cccc([N+](=O)[O-])c1)N1CCN(CCOC(c2ccccc2)c2ccccc2)CC1`: the TGI is > 100 µM in experiment [1], 32.9 µM in experiment [2], > 100 µM in experiment [3] and > 100 µM in experiment [4].
Consider `Cc1cccc2nc(-c3ccccc3)cc(=O)n12`, for which the TGI in experiment [1], in experiment [2], in experiment [3] and in experiment [4] was > 100 µM throughout.
Regarding `CCOC(=O)CC[C@H](N)C(=O)N[C@@H](Cc1ccc(N(CCCl)CCCl)cc1)C(=O)OCC`, the TGI in experiment [1] is 0.823 µM; in experiment [2], > 42.2 µM; in experiment [3], 22.3 µM; in experiment [4] it was > 48.9 µM.
`O=C1c2ccccc2-c2nnc(-c3ccc([N+](=O)[O-])cc3)cc21`: the TGI in experiment [1], in experiment [2], in experiment [3] and in experiment [4] was > 10 µM throughout.
`CC1=NN(c2cccc(S(=O)(=O)O)c2)C2(C1)C(Cl)C(=O)N2c1nc2ccccc2s1` (stereo not given): the TGI in experiment [1] was 17.3 µM; in experiment [2], 17.4 µM; in experiment [3], 18.7 µM; in experiment [4], 26.4 µM.
For `O=C(O)c1cccc(Nc2c(C(=O)O)cccc2[N+](=O)[O-])c1`, the TGI in experiment [1], in experiment [2], in experiment [3] and in experiment [4] was > 100 µM each time.
Take `CC(C)C[C@H]1[C@@H](OCc2ccccc2)COS(=O)(=O)N1[C@H](C)c1ccccc1`: the TGI was > 100 µM in experiment [1], > 83.7 µM in experiment [2], > 100 µM in experiment [3] and > 100 µM in experiment [4].
Regarding `Cc1sc2nc(N(C)C)oc(=O)c2c1C`, the TGI in experiment [1] is > 100 µM; in experiment [2] it was > 100 µM; in experiment [3] it was 49.1 µM; in experiment [4], > 100 µM.
Consider `Cc1ccc2c(c1)C(=O)C1(C2)Cc2c(C)cccc2C1=O` (stereo not given), for which the TGI in experiment [1], in experiment [2], in experiment [3] and in experiment [4] was > 100 µM throughout.
As for `COc1ccccc1C[C@@H]1OC2(C=CC(=O)CC2SC(=O)c2ccccc2)O[C@H]1Cc1ccccc1OC` (stereo not given in full), the TGI in experiment [1] came out at 4.26 µM; in experiment [2] it was 2.81 µM; in experiment [3], 2.74 µM; in experiment [4] it was 8.67 µM.
Regarding `COC(=O)c1ccccc1/C=C1\Cc2c(ccc3c2CCC3)C1=O`, the TGI in experiment [1], in experiment [2], in experiment [3] and in experiment [4] was > 100 µM each time.
Regarding `OCC1OC(NC(=S)NCCC(F)(F)C(F)(F)C(F)(F)C(F)(F)C(F)(F)C(F)(F)F)C(O)C(O)C1O` (stereo not given), the TGI in experiment [1], in experiment [2], in experiment [3] and in experiment [4] was > 100 µM each time.
For `COc1cc2c(/C=C3/C(=O)Nc4ccc(O)cc43)c(Cl)n(Cc3ccccc3)c2cc1C`, the TGI in experiment [1] was 0.629 µM; in experiment [2], 3.35 µM; in experiment [3], 24.6 µM; in experiment [4], > 100 µM. Moreover, in experiment [3], the GI50 was 4.67 µM.
As to `CCOc1cccc(C=Nc2ccccc2SSc2ccccc2N=Cc2cccc(OCC)c2O)c1O`, the TGI in experiment [1] came to 23.6 µM; in experiment [2], 28.2 µM; in experiment [3], 8.19 µM; in experiment [4], 26.6 µM.
For the molecule `C[N+]12CCCCC1C(COc1cccc3cccnc13)CCC2` (stereo not given), the TGI in experiment [1], in experiment [2], in experiment [3] and in experiment [4] was > 100 µM throughout.
On to `CC[C@]12C=CCN3CC[C@@]4(c5cc(Br)c(OC)c([N+](=O)[O-])c5N(C)[C@H]4[C@@](O)(C(=O)OC)[C@@H]1OC(C)=O)[C@@H]32`, for which the TGI in experiment [1], in experiment [2], in experiment [3] and in experiment [4] was > 100 µM in each case.
`O=S(=O)(O)CCSSCCS(=O)(=O)O`: the TGI in experiment [1], in experiment [2], in experiment [3] and in experiment [4] was > 1000 µM in each case.

The values are drawn from PubChem BioAssay (NCI).
